System: differentiated culture of primary bronchial human cells
Assay: Barrier disruption at the air-liquid interface: epithelial barrier resistance Rc by impedance spectroscopy before and after EGTA stimulation
Assay type: cell-based
Details: paired t-test
Experimental: Impedance spectra were measured before and after EGTA stimulation either submerged or at the air-liquid interface. The extrapolated values of the equivalent resistance Rc were compared with TER values.
FIG. 17 is a bar chart of fitted resistance values, Rc, showing the disruption induced by the EGTA stimulation.
Electrical impedance spectroscopy (EIS) measurements were performed using the two electrodes configuration of an Alpha-A impedance analyser (Novocontrol Technologies, Germany). A frequency sweep was performed between 100 Hz and 100 kHz, with an applied voltage of 0.05 V(rms). Prior to the EIS measurement, the medium in the apical compartment was replaced with different volumes (200 μl, 50 μl, 20 μl, 10 μl) of fresh medium at room-temperature. Each Transwell® support was placed on top of the planar electrodes only for the duration of the measurement (≈30 s). Trans-epithelial electrical resistance (TER) measurements were performed using chopstick electrodes connected to an EVOM2 Epithelial Volt-ohm-meter (World Precision Instruments).
A custom script was developed in Matlab (© 2015 The MathWorks) to fit the complex electrical impedance data with the equivalent electric circuit model. The objective function to be minimized during the fitting was defined as: […]
The absolute value of the impedance was used as the normalizing factor. […]

## O=C(O)CN(CCOCCOCCN(CC(=O)O)CC(=O)O)CC(=O)O [EGTA, ethylene glycol-bis(β-aminoethyl ether)-N,N,N′,N′-tetraacetic acid]
air-liquid interface measurement
  fitted resistance Rc of the epithelial barrier, change after stimulation compared to the control: statistically significant (paired t-test) drop
Submerged measurement
  fitted resistance Rc of the epithelial barrier, change after stimulation compared to the control: statistically significant (paired t-test) drop

Reference: US20210040428A1, “MICROFLUIDIC DEVICE AND METHOD FOR DETERMINING CELL ELECTRICAL BARRIER PROPERTIES” (University of Southampton, priority 2018, published 2021)
